The target in assay [1] is T1, E3 ubiquitin-protein ligase XIAP (Homo sapiens, UniProt P98170). Kind of assay: Counter Screen using XIAP-Bir3 for Chemical Antagonists of Bir1/2 domains of IAP-family anti-apoptotic proteins. [Related pubchem assays (depositor defined):AID1018, AID1449, AID1514, AID1638, AID1749, AID1750, AID488957, AID488963]. For orientation: Counterscreens check selectivity or assay interference.

The target in assay [2] is T1, E3 ubiquitin-protein ligase XIAP. Kind of assay: XIAP antagonists, biochemical, IAP family, fluorescence polarization (AID 1018). The format is functional. A general note: In fluorescence polarisation assays a small probe gives low polarisation when free and higher when bound to something large.
The target in assay [3] is Protein-tyrosine kinase 2-beta (Homo sapiens, UniProt Q14289).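 Also: potency of inhibitors of PYK2 kinase phosphorylation of poly-GT substrate.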
For assay [4], the system named is Streptococcus sp. 'group A'. Kind of assay: growth inhibition of control SK(-) GAS strain, dose response, counter-screen for streptokinase expression inhibitor project, luminescence, kanamycin, BacTiterGlo, confirmation (AID 1900). The assay is classed as functional, organism-based.
The target of a further assay is Ion channel NompC (Danio rerio, UniProt Q7T1G6). Kind of assay: Dose response cell-based high-throughput screening assay for agonists of the transient receptor potential channel N1 (TRPN1). [Related pubchem assays (depositor defined):AID1424, AID1448]. The format is functional.
Another assay concerns the target Mucolipin-3 (Homo sapiens, UniProt Q8TDD5). Kind of assay: Fluorescence counterscreen assay for […] agonists: dose response cell-based high-throughput screening assay to identify agonists of the transient receptor potential channel ML3 (TRPML3). [Related pubchem assays: 1424, 1448 ]. The format is functional.
The subject of another assay is Streptococcus. Kind of assay: Group A Streptococcus viability loss, dose response, counter-screen for streptokinase expression inhibitor project, luminescence, BacTiterGlo (AID 1915).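 Also: potency for reduction of bacterial viability or growth.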 The format is functional, organism-based.
Another assay concerns the target T2, Hexokinase HKDC1 (Homo sapiens, UniProt Q2TB90).
T2 sequence (Q2TB90 whole entry): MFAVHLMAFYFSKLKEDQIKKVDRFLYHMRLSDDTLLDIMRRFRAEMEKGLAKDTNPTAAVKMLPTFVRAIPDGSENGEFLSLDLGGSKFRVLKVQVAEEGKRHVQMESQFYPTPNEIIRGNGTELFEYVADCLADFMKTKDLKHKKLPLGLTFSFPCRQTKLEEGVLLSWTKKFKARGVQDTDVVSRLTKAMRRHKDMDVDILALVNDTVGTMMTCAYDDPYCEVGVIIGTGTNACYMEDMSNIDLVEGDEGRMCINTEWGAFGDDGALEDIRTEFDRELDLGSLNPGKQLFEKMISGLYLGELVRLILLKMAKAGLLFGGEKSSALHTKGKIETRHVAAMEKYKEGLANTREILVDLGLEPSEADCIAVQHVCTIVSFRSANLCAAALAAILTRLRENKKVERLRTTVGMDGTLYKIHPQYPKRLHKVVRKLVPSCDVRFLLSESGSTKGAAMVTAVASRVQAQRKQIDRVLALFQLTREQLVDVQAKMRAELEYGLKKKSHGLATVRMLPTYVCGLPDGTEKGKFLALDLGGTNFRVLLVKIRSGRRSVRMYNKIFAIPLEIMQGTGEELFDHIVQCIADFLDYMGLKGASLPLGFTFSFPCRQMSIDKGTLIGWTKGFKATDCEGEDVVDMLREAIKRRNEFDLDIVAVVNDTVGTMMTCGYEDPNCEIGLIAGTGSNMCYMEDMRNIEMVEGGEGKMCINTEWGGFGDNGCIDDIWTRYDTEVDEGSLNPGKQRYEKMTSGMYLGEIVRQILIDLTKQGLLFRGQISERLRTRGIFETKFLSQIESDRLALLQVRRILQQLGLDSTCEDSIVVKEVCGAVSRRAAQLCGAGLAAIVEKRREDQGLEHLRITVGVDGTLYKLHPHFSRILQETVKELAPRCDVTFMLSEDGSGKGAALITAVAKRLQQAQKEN
Kind of assay: HKDC1 hexokinase activators, dose response, biochemical, W721R variant (AID 504730). The assay is classed as functional.

Assay [5] deals with T3, Short transient receptor potential channel 4 (Mus musculus, UniProt Q9QUQ5).
T3 sequence (Q9QUQ5 whole entry): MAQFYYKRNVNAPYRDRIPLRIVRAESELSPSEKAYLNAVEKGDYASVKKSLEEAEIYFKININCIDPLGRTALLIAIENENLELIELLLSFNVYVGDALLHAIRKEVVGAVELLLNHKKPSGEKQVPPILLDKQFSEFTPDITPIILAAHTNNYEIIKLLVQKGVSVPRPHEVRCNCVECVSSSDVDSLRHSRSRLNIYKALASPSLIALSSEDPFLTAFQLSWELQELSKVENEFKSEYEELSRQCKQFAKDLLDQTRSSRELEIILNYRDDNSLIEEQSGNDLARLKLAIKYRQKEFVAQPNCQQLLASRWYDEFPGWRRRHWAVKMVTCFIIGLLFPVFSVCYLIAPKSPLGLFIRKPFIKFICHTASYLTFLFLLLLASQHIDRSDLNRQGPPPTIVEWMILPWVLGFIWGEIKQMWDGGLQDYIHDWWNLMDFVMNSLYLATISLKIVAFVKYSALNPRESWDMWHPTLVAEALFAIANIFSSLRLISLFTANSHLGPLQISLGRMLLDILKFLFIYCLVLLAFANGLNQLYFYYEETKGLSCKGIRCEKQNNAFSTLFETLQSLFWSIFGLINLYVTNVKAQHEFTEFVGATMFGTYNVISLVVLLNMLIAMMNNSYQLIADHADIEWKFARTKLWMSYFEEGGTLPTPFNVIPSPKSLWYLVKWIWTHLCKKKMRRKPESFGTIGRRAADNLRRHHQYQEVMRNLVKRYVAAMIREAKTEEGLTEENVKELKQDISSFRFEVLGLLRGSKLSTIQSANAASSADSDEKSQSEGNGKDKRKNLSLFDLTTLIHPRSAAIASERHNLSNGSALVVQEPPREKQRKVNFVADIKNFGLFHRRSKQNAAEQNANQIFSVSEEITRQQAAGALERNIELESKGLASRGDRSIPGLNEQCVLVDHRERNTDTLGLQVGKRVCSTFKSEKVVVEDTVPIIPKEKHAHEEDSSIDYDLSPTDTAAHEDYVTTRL
Kind of assay: mouse TRPC4 channel activators, dose response, cell-based, HEK293 TRPC4/mu-opioid, Fluo-4 calcium (AID 434937). The assay is classed as functional.

For a further assay, the target named is T4, Hexokinase-1 (Homo sapiens, UniProt P19367).
T4 sequence (P19367 whole entry): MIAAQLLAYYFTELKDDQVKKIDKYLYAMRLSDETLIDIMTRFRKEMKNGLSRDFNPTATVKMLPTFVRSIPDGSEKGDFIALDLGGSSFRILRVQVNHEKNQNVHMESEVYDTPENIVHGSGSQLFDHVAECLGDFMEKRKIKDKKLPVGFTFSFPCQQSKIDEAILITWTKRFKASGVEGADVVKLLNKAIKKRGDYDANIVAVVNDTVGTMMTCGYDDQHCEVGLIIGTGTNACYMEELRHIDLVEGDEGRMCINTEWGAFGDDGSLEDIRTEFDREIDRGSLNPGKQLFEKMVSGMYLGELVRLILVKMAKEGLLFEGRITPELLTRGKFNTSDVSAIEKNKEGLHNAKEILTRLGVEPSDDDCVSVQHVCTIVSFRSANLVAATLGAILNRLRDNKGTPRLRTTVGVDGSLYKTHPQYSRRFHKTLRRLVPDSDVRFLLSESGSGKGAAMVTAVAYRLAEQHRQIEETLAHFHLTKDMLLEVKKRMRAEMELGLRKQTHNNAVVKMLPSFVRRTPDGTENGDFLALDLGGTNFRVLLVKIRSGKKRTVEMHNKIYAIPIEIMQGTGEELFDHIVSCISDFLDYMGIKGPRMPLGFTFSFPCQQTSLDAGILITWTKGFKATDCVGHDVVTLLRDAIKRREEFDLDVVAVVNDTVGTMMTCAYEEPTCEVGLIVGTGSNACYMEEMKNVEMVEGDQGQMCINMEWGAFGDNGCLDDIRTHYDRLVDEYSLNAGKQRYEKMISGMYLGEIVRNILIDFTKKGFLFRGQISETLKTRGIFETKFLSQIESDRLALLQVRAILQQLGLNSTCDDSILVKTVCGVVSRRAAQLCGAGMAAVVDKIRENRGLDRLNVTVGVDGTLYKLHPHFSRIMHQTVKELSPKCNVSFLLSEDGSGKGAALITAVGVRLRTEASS
Kind of assay: hexokinase 1 activators, dose response, selectivity assay for HKDC1 activator project, biochemical (AID 504762). The assay is classed as functional.

The target of assay [6] is Peroxisome proliferator-activated receptor gamma/Nuclear receptor coactivator 1 (Homo sapiens, UniProt P37231). Kind of assay: TR-FRET dose response biochemical High Throughput Screening assay for agonists of the steroid receptor coactivator 1 (SRC-1) recruitment by the peroxisome proliferator-activated receptor gamma (PPAR gamma): non-selective agonists. [Related pubchem assays (depositor defined):AID1300, AID1808, AID504735, AID631]. The assay is classed as protein assay.

The target in assay [7] is Peroxisome proliferator-activated receptor gamma/Nuclear receptor coactivator 3 (Homo sapiens, UniProt P37231). Kind of assay: TR-FRET dose response biochemical High Throughput Screening assay for agonists of the steroid receptor coactivator 3 (SRC-3) recruitment by the peroxisome proliferator-activated receptor gamma (PPAR gamma): non-selective agonists. [Related pubchem assays: 1301 (Confirmation screen.), 1048 (Primary screen.)]. The format is functional. (In TR-FRET formats the signal depends on donor and acceptor labels being close together.)

For assay [8], the target named is Peroxisome proliferator-activated receptor gamma/Nuclear receptor coactivator 2 (Homo sapiens, UniProt P37231). Kind of assay: TR-FRET dose response biochemical High Throughput Screening assay for agonists of the steroid receptor coactivator 2 (SRC-2) recruitment by the peroxisome proliferator-activated receptor gamma (PPAR gamma): non-selective agonists. [Related pubchem assays: 1297, 1032 ]. The format is functional.

The target of the next assay is Major prion protein (Homo sapiens, UniProt P04156). The format is functional, cell-based.
For assay [9], the target named is T5, Peroxisome proliferator-activated receptor gamma (Homo sapiens, UniProt P37231).
T5 sequence (P37231 whole entry): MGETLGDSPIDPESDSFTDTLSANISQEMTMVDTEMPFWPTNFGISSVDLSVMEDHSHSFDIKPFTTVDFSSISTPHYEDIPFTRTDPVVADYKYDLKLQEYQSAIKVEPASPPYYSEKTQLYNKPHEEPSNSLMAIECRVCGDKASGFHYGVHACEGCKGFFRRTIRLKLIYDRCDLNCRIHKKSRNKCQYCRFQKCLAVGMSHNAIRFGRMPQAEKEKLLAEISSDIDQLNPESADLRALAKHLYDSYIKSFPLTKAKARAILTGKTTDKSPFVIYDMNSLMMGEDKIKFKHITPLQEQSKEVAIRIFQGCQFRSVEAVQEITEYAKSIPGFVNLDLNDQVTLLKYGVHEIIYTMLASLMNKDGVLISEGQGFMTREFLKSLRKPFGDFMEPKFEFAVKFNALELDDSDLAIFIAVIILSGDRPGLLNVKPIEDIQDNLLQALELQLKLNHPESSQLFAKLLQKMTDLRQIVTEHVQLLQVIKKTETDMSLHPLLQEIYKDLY
Kind of assay: PPARg partial agonists, dose response, cell-based, luminescence, assay provider (AID 504447). The format is functional.

Active and inactive are the calls of the source.

Usually IC50 stands for the concentration at which inhibition is half-maximal. On to `CC(C)N(CC#CCC(O)(c1ccccc1)c1ccccc1)CCO`, for which the IC50 is > 100 µM (inactive) in assay [1] and > 100 µM (not active) in assay [2].
As for `COc1ccc(OC)c(NS(=O)(=O)Cc2ccccc2)c1`, the IC50 was > 100 µM (inactive) in [1], > 100 µM (not active) in assay [2] and 12 µM (not active) in assay [3].
What is called EC50 is the concentration needed to bring the measured effect to its halfway point. For `Cc1onc(-c2ccccc2)c1C(=O)NNC(=S)NC(=O)c1ccc(Br)cc1`, the EC50 in assay [4] is 0.472 µM (active); at Ion channel NompC it was 0.604 µM (active); on Mucolipin-3 it was 1.03 µM (active); with Streptococcus, 1.52 µM (active); at Hexokinase HKDC1, 6.58 µM (active); in assay [5], 1.88 µM (active). The EC50 on Hexokinase-1 was > 80 µM (inactive).
Turning to `COC(=O)c1cc(Cl)c(NC(=O)c2cc3ccccc3o2)cc1OC`, the 50% effective concentration (EC50) is 7.17 µM (active) in assay [6], 63 µM (not active) in [7] and 12.3 µM (not active) in assay [8].
With `CC(=O)CSc1nc(-c2cccs2)c(C#N)c(=O)[nH]1`, the EC50 in assay [6] was > 79.4 µM (inactive); in assay [7], > 79.4 µM (not active); in [8] it was > 79.4 µM (not active). For the same compound, the IC50 at Major prion protein was 2.27 µM (active).
Take `COc1ccc2c(c1)c(=O)c(C(=O)c1ccc(F)cc1)cn2CC(=O)Nc1ccc(F)cc1`: the EC50 in assay [9] was 1.8 µM (active).

(Values after ChEMBL document CHEMBL1201862, “PubChem BioAssay data set” (2004).)
